Article PMC6271077, “Synthesis, Anticancer and Antibacterial Activity of Salinomycin N-Benzyl Amides” (Molecules, 2014)
Converted amounts (≈) assume the structure as drawn. Read-outs that look alike come from different tables or passages of the source.

How the values were obtained:
Type in all cases: cell-based
MRSA 514/11 = assay: MIC microdilution, hospital MRSA; details: Staphylococcus aureus
MRSA 522/12 = assay: MIC microdilution, hospital MRSA; details: Staphylococcus aureus
MRSA 462/11 = assay: MIC microdilution, hospital MRSA; details: Staphylococcus aureus
MRSE 468/11 = assay: MIC microdilution, hospital MRSE; details: Staphylococcus epidermidis
S. aureus ATCC 4163 [1] = assay: MIC microdilution; details: Staphylococcus aureus
MRSA 537/12 = assay: MIC microdilution, hospital MRSA; details: Staphylococcus aureus
MRSA 452/11 = assay: MIC microdilution, hospital MRSA; details: Staphylococcus aureus
MRSE 488/11 = assay: MIC microdilution, hospital MRSE; details: Staphylococcus epidermidis
MRSE 460/11 = assay: MIC microdilution, hospital MRSE; details: Staphylococcus epidermidis
S. aureus ATCC 25923 = assay: Disc-diffusion (GIZ); details: 18 h, 35 °C, un: unmeasurable
Description: (§1) Microorganisms used in this study were as follows: Gram-positive cocci: S. aureus NCTC 4163, S. aureus ATCC 25923, S. aureus ATCC 6538, S. aureus ATCC 29213, S. epidermidis ATCC 12228, S. epidermidis ATCC 35984, Gram-negative rods: E. coli ATCC 10538, E. coli ATCC 25922, E. coli NCTC 8196, P. vulgaris NCTC 4635, P. aeruginosa ATCC 15442, P. aeruginosa NCTC 6749, P. aeruginosa ATCC 27863, B. bronchiseptica ATCC 4617 and yeasts: C. albicans ATCC 10231, C. albicans ATCC 90028, C. parapsilosis ATCC 22019. The other microorganisms used were obtained from the collection of the Department of Pharmaceutical Microbiology, Medical University of Warsaw, Poland.
(§2) Antibacterial activity was examined by the disc-diffusion method under standard conditions using Mueller-Hinton II agar medium (Becton Dickinson, Heidelberg, Germany) according to CLSI (previously NCCLS) guidelines. Antifungal activities were assessed using Muellere Hinton agar + 2% glucose and 0.5 mg/mL Methylene Blue Dye Medium.
(§3) Sterile filter paper discs (9 mm diameter, Whatman No. 3 chromatography paper) were dripped with tested compound solutions (in EtOH) to load […] of a given compound per disc. Dry discs were placed on the surface of appropriate agar medium. The results (diameter of the growth inhibition zone, GIZ) were read after 18 h of incubation at 35 °C.

[2] = test system: S. epidermidis ATCC 12228; assay: Disc-diffusion (GIZ); details: 18 h, 35 °C, un: unmeasurable
Description: as §1, §2, §3

[3] = test system: S. epidermidis ATCC 35984; assay: Disc-diffusion (GIZ); details: 18 h, 35 °C, un: unmeasurable
Description: as §1, §2, §3

S. aureus ATCC 29213 = assay: Disc-diffusion (GIZ); details: 18 h, 35 °C, un: unmeasurable
Description: as §1, §2, §3

S. aureus ATCC 4163 [4] = assay: Disc-diffusion (GIZ); details: 18 h, 35 °C, un: unmeasurable
Description: as §1, §2, §3

S. aureus ATCC 6538 = assay: Disc-diffusion (GIZ); details: 18 h, 35 °C, un: unmeasurable
Description: as §1, §2, §3

MRSA 572/12 = assay: MIC microdilution, hospital MRSA; details: Staphylococcus aureus
MRSA 586/12 = assay: MIC microdilution, hospital MRSA; details: Staphylococcus aureus
MRSE 461/11 = assay: MIC microdilution, hospital MRSE; details: Staphylococcus epidermidis
[5] = hospital MRSA strain 514/11, read-out: MIC
[6] = hospital MRSA strain 522/12, read-out: MIC
[7] = hospital MRSA strain 462/11, read-out: MIC
[8] = hospital MRSE strain 468/11, read-out: MIC
[9] = ATCC4163, S. aureus ATCC 4163, 18 h, 35 °C, read-out: MIC
[10] = hospital MRSA strain 537/12, read-out: MIC
[11] = hospital MRSA strain 452/11, read-out: MIC
[12] = hospital MRSE strain 488/11, read-out: MIC
[13] = hospital MRSE strain 460/11, read-out: MIC
[14] = hospital MRSA strain 572/12, read-out: MIC
[15] = hospital MRSA strain 586/12, read-out: MIC
[16] = hospital MRSE strain 461/11, read-out: MIC

CC[C@H](C(=O)NCc1ccc(F)cc1)C1CC[C@H](C)C([C@@H](C)[C@H](O)[C@H](C)C(=O)[C@H](CC)C2O[C@]3(C=C[C@@H](O)C4(CC[C@@](C)(C5CC[C@](O)(CC)[C@H](C)O5)O4)O3)[C@H](C)C[C@@H]2C)O1 (stereo partly drawn) [F-p]
MIC (MRSA 514/11; [5]): 32 µg/mL (≈ 37.3 µM)
MIC (MRSA 522/12; [6]): 32 µg/mL (≈ 37.3 µM)
MIC (MRSA 462/11; [7]): 32 µg/mL (≈ 37.3 µM)
MIC (MRSE 468/11; [8]): 64 µg/mL (≈ 74.6 µM)
MIC (S. aureus ATCC 4163 [1]; [9]): 32 µg/mL (≈ 37.3 µM)
MIC (MRSA 537/12; [10]): 32 µg/mL (≈ 37.3 µM)
MIC (MRSA 452/11; [11]): 16 µg/mL (≈ 18.6 µM)
MIC (MRSE 488/11; [12]): 128 µg/mL (≈ 149 µM)
MIC (MRSE 460/11; [13]): 32 µg/mL (≈ 37.3 µM)
GIZ (S. aureus ATCC 25923): 19 mm
GIZ [2]: 20 mm
GIZ [3]: 18 mm
GIZ (S. aureus ATCC 29213): 20 mm
GIZ (S. aureus ATCC 4163 [4]): 18 mm
GIZ (S. aureus ATCC 6538): 19 mm
MIC (MRSA 572/12; [14]): 32 µg/mL (≈ 37.3 µM)
MIC (MRSA 586/12; [15]): 64 µg/mL (≈ 74.6 µM)
MIC (MRSE 461/11; [16]): 32 µg/mL (≈ 37.3 µM)

CC[C@H](C(=O)NCc1ccc([N+](=O)[O-])cc1)C1CC[C@H](C)C([C@@H](C)[C@H](O)[C@H](C)C(=O)[C@H](CC)C2O[C@]3(C=C[C@@H](O)C4(CC[C@@](C)(C5CC[C@](O)(CC)[C@H](C)O5)O4)O3)[C@H](C)C[C@@H]2C)O1 (stereo partly drawn) [NO2-p]
MIC (MRSA 514/11; [5]): 128 µg/mL (≈ 145 µM)
MIC (MRSA 522/12; [6]): 128 µg/mL (≈ 145 µM)
MIC (MRSA 462/11; [7]): 128 µg/mL (≈ 145 µM)
MIC (MRSE 468/11; [8]): 128 µg/mL (≈ 145 µM)
MIC (S. aureus ATCC 4163 [1]; [9]): 128 µg/mL (≈ 145 µM)
MIC (MRSA 537/12; [10]): 256 µg/mL (≈ 289 µM)
MIC (MRSA 452/11; [11]): 128 µg/mL (≈ 145 µM)
MIC (MRSE 488/11; [12]): 256 µg/mL (≈ 289 µM)
MIC (MRSE 460/11; [13]): 128 µg/mL (≈ 145 µM)
GIZ (S. aureus ATCC 25923): un
GIZ [2]: un
GIZ [3]: un
GIZ (S. aureus ATCC 29213): un
GIZ (S. aureus ATCC 4163 [4]): un
GIZ (S. aureus ATCC 6538): un
MIC (MRSA 572/12; [14]): 128 µg/mL (≈ 145 µM)
MIC (MRSA 586/12; [15]): 256 µg/mL (≈ 289 µM)
MIC (MRSE 461/11; [16]): 256 µg/mL (≈ 289 µM)

CC[C@@H](C(=O)[C@@H](C)[C@@H](O)[C@H](C)[C@@H]1O[C@@H]([C@@H](CC)C(=O)O)CC[C@@H]1C)[C@H]1O[C@]2(C=C[C@@H](O)[C@]3(CC[C@@](C)([C@H]4CC[C@](O)(CC)[C@H](C)O4)O3)O2)[C@H](C)C[C@@H]1C [SAL, Salinomycin]
MIC (MRSA 514/11; MRSA): 8 µg/mL (≈ 10.7 µM)
MIC (MRSA 522/12; MRSA): 16 µg/mL (≈ 21.3 µM)
MIC (MRSA 462/11; MRSA): 16 µg/mL (≈ 21.3 µM)
MIC (MRSE 468/11; MRSE): 16 µg/mL (≈ 21.3 µM)
MIC (S. aureus ATCC 4163 [1]; ATCC4163, 18 h): 2 µg/mL (≈ 2.66 µM)
MIC (MRSA 537/12; MRSA): 16 µg/mL (≈ 21.3 µM)
MIC (MRSA 452/11; MRSA): 16 µg/mL (≈ 21.3 µM)
MIC (MRSE 488/11; MRSE): 16 µg/mL (≈ 21.3 µM)
MIC (MRSE 460/11; MRSE): 16 µg/mL (≈ 21.3 µM)
GIZ (S. aureus ATCC 25923): 29 mm
GIZ [2]: 34 mm
GIZ [3]: 33 mm
GIZ (S. aureus ATCC 29213): 28 mm
GIZ (S. aureus ATCC 4163 [4]): 30 mm
GIZ (S. aureus ATCC 6538): 34 mm
MIC (MRSA 572/12; MRSA): 16 µg/mL (≈ 21.3 µM)
MIC (MRSA 586/12; MRSA): 16 µg/mL (≈ 21.3 µM)
MIC (MRSE 461/11; MRSE): 16 µg/mL (≈ 21.3 µM)
